Source: PubChem BioAssay AID1963856 (Molecular Pharmacology Branch, DTP, NCI, 2024)
Activity calls are given as the source filed them. The calls were made as follows: active = viability on the fitted dose curve at most 10% of control; inactive = the rest.

Test system: LG0567-F671-PDC KRAS tumor spheroid viability
Experiment: Anticancer human tumor LG0567-F671-PDC patient-derived lung adenocarcinoma cell line growth inhibition [KRAS2]
Details: spheroids with HUVEC and MSC; for viability, T/C: stronger effect = lower value
Excerpt: Multicellular complex tumor spheroid response to RAS pathway inhibitors in combination with a targeted agents in patient-derived cell lines with oncogenic KRAS variants from multiple cancer types
A high-throughput screen of multi-cell type tumor spheroids was designed to identify active combinations of targeted small molecules and KRAS pathway inhibitors. Complex spheroids include a stromal component modeled by human endothelial cells (HUVEC) and fibroblasts modeled by human mesenchymal stem cells (MSCs). The concentration ranges selected for each drug and investigational agent were based upon clinically achievable concentrations if the clinical Cmax of the agent was known.
Compounds. The drugs and investigational agents: BI-3406 (NSC825286), BAY-293 (NSC824723), batoprotafib (TNO155; NSC825523), sotorasib (AMG 510; NSC818433), MRTX1257 (NSC819558), elimusertib (BAY 1895344; NSC800525), molibresib (GSK525762; NSC774829), temuterkib (LY3214996; NSC803410), venetoclax (NSC766270), alisertib (NSC759677), olaparib (NSC753686), talazoparib (NSC767125), erdafitinib (NSC781556), ipatasertib (NSC767898), cabozantinib (NSC761068), nintedanib (NSC756659), abemaciclib (NSC768073), docetaxel (NSC628503), trametinib (NSC758246), and sapanisertib (NSC764658) were obtained from the National Cancer Institute (NCI) Developmental Therapeutics Program Chemical Repository. The FDA-approved anticancer drug set is available from the Developmental Therapeutics Program. […] The stock solutions were prepared in dimethyl sulfoxide (DMSO, Sigma-Aldrich, St. Louis, MO, cat. D2650) at 800-fold the tested concentration and stored at -70 degrees C prior to their use. All drugs and investigational agents were tested over a range starting from a high concentration at or near the clinical Cmax and decreasing in half-log increments. If the clinical Cmax for an agent had not been determined, the highest concentration tested was 10 microM.
Cell Culture. All cells were maintained in an incubator at 37 degrees C and 5% CO2 with 95% humidity. The PDC lines were cultured according to standard operating procedures established by the NCI PDMR (https://pdmr.cancer.gov/sops/default.htm). Briefly, all PDCs were thawed and cultured in Matrigel-coated flasks prepared with a working solution of 1X Ham's F-12 nutrient mix, without supplementation (Invitrogen, Waltham, MA, cat. 11765054), 100 U/mL penicillin-streptomycin (Invitrogen, cat. 15140122), and 2.5% Matrigel (Corning Inc., Corning, NY, cat. 354248) for the first three passages. All PDCs were cultured in complete DMEM/F-12 media containing advanced DMEM/F-12 (Invitrogen, cat. 12634028), 4.9% defined fetal bovine serum, heat inactivated (HyClone Laboratories Inc., Logan, UT, cat. SH30070.03HI), 389 ng/mL hydrocortisone (Sigma-Aldrich, cat. H4001), 9.7 ng/mL human EGF recombinant protein (Invitrogen, cat. PHG0313), 23.4 microg/mL adenine (Sigma-Aldrich, cat. A2786), 97.3 U/mL penicillin-streptomycin (Invitrogen, cat. 15140122), 1.9 mM L-glutamine (Invitrogen, cat. 25030081), and 9.7 microM Y-27632 dihydrochloride (Tocris Bioscience, Bristol, United Kingdom, cat. 1254). The PDCs were cultured in complete DMEM/F12 media without 9.7 microM Y-27632 dihydrochloride for at least two passages prior to the screen. The established cell line HOP-62 was cultured in RPMI 1640 medium, HEPES (Invitrogen, cat. 22400105) with 10% defined fetal bovine serum (HyClone Laboratories Inc., cat. SH30070.03) and 2 mM L-glutamine (Invitrogen, cat. 25030081). The pooled donor HUVEC were cultured in endothelial cell growth medium 2 (PromoCell, Heidelberg, Germany, cat. C-22011) and the hMSC were cultured in mesenchymal stem cell growth medium 2 (PromoCell, cat. C-28009). For all experiments, HUVEC and hMSC were used at passages </=5, while the malignant cell lines were used at passages </=15. […]

[1] = curve of first compound, second compound 0.1 µM
[2] = curve of first compound, second compound 0.316 µM
[3] = curve of first compound, second compound 1 µM
[4] = curve of first compound, second compound 3.16 µM
[5] = curve of first compound, second compound 10 µM
[6] = second compound 0.1 µM, first compound 0.0316 µM
[7] = second compound 0.1 µM, first compound 0.1 µM
[8] = second compound 0.316 µM, first compound 0.0316 µM
[9] = second compound 0.316 µM, first compound 0.1 µM
[10] = second compound 1 µM, first compound 0.0316 µM
[11] = second compound 1 µM, first compound 0.1 µM
[12] = second compound 3.16 µM, first compound 0.0316 µM
[13] = second compound 3.16 µM, first compound 0.1 µM
[14] = second compound 10 µM, first compound 0.0316 µM
[15] = second compound 10 µM, first compound 0.1 µM
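For IC50 in this document: drug exposure lasted seven days after spheroids formed for three days.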
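For viability, T/C in this document: drug exposure lasted seven days after spheroids formed for three days.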

CNCc1ccccc1-c1csc(C(C)Nc2nc(C)nc3cc(OC)c(OC)cc23)c1 (stereo not drawn)
viability, T/C (compound 10 µM): 0.63% [middle of 16 runs] | IC50 (compound alone, run of 07/19/2021): 1.25 µM [middle of 5 runs] | IC50 (compound alone, run of 07/26/2021): 4.92 µM [middle of 6 runs]

O=C(c1cc(Cc2n[nH]c(=O)c3ccccc23)ccc1F)N1CCN(C(=O)C2CC2)CC1 + CC1OCC2(CCN(c3cnc(Sc4ccnc(N)c4Cl)c(N)n3)CC2)C1N
IC50 [1]: > 10000 nM | IC50 [2]: < 31.6 nM | IC50 [3]: < 31.6 nM | IC50 [4]: < 31.6 nM | IC50 [5]: < 31.6 nM | viability, T/C [6]: 63.8% | viability, T/C [7]: 54% | viability, T/C (second compound 0.1 µM, first compound 0.316 µM): 60.3% | viability, T/C (second compound 0.1 µM, first compound 1 µM): 59.7% | viability, T/C (second compound 0.1 µM, first compound 3.16 µM): 54.4% | viability, T/C (second compound 0.1 µM, first compound 10 µM): 53.2% | viability, T/C [8]: 37.9% | viability, T/C [9]: 35.5% | viability, T/C (second compound 0.316 µM, first compound 0.316 µM): 32.3% | viability, T/C (second compound 0.316 µM, first compound 1 µM): 32.9% | viability, T/C (second compound 0.316 µM, first compound 3.16 µM): 33.5% | viability, T/C (second compound 0.316 µM, first compound 10 µM): 38.2% | outcome [10]: inactive | viability, T/C [11]: 40% | viability, T/C (second compound 1 µM, first compound 0.316 µM): 35.5% | viability, T/C (second compound 1 µM, first compound 1 µM): 29.8% | viability, T/C (second compound 1 µM, first compound 3.16 µM): 32.8% | viability, T/C (second compound 1 µM, first compound 10 µM): 28.6% | viability, T/C [12]: 20.9% | viability, T/C [13]: 20.8% | viability, T/C (second compound 3.16 µM, first compound 0.316 µM): 24.8% | viability, T/C (second compound 3.16 µM, first compound 1 µM): 26% | viability, T/C (second compound 3.16 µM, first compound 3.16 µM): 23.9% | viability, T/C (second compound 3.16 µM, first compound 10 µM): 23.8% | viability, T/C [14]: 10.2% | viability, T/C [15]: 11% | viability, T/C (second compound 10 µM, first compound 0.316 µM): 12.2% | viability, T/C (second compound 10 µM, first compound 1 µM): 11.8% | viability, T/C (second compound 10 µM, first compound 3.16 µM): 14.2% | viability, T/C (second compound 10 µM, first compound 10 µM): 17.4%

CN(C)C/C=C/C(=O)Nc1cc2c(Nc3ccc(F)c(Cl)c3)ncnc2cc1O[C@H]1CCOC1 + CC1OCC2(CCN(c3cnc(Sc4ccnc(N)c4Cl)c(N)n3)CC2)C1N
IC50 [1]: 4.99 nM | IC50 [2]: < 0.316 nM | IC50 [3]: > 100 nM | IC50 [4]: < 0.316 nM | IC50 [5]: < 0.316 nM | viability, T/C (second compound 0.1 µM, first compound 0.000316 µM): 55.9% | viability, T/C (second compound 0.1 µM, first compound 0.001 µM): 51.9% | viability, T/C (second compound 0.1 µM, first compound 0.00316 µM): 50.8% | viability, T/C (second compound 0.1 µM, first compound 0.01 µM): 52.2% | viability, T/C [6]: 43.3% | viability, T/C [7]: 49.4% | viability, T/C (second compound 0.316 µM, first compound 0.000316 µM): 44.1% | viability, T/C (second compound 0.316 µM, first compound 0.001 µM): 40.5% | viability, T/C (second compound 0.316 µM, first compound 0.00316 µM): 43.1% | viability, T/C (second compound 0.316 µM, first compound 0.01 µM): 30.6% | viability, T/C [8]: 29.9% | viability, T/C [9]: 32.7% | viability, T/C (second compound 1 µM, first compound 0.000316 µM): 106% | viability, T/C (second compound 1 µM, first compound 0.001 µM): 84.5% | viability, T/C (second compound 1 µM, first compound 0.00316 µM): 96.2% | viability, T/C (second compound 1 µM, first compound 0.01 µM): 78.9% | viability, T/C [10]: 59% | viability, T/C [11]: 69.3% | viability, T/C (second compound 3.16 µM, first compound 0.000316 µM): 19.9% | viability, T/C (second compound 3.16 µM, first compound 0.001 µM): 15.2% | viability, T/C (second compound 3.16 µM, first compound 0.00316 µM): 16.2% | viability, T/C (second compound 3.16 µM, first compound 0.01 µM): 21.2% | viability, T/C [12]: 18.4% | viability, T/C [13]: 21.6% | outcome (second compound 10 µM, first compound 0.000316 µM): inactive | outcome (second compound 10 µM, first compound 0.001 µM): inactive | viability, T/C (second compound 10 µM, first compound 0.00316 µM): 15.9% | outcome (second compound 10 µM, first compound 0.01 µM): inactive | viability, T/C [14]: 13.4% | viability, T/C [15]: 12.9%
